The source of these data is US7393812B2, “Methylidene mevalonates and their use as herbicides” (Dow AgroSciences LLC, priority 2004, dated 2008).

Common to all, as to assay type: in vivo
The test system of assay [1] is lambsquarters (Chenopodium album, CHEAL). As to the kind of experiment: Synergistic herbicidal activity, foliar track sprayer. The conditions noted are these: methylidene mevalonate 933 g ae/ha alone, 14 days, 1% crop oil concentrate. On the procedure: (§1) Methylidene mevalonate alone and in combination with nonanoic acid was applied to the foliage of rapidly growing plant material utilizing a track sprayer calibrated to deliver an application volume of 187 L/ha. These treatments were applied to both broadleaf and grass weed species. All treatments contained 1% crop oil concentrate. Assessment of herbicidal activity was performed visually relative to untreated controls after 14 days incubation in the greenhouse. Species abbreviations are as previously defined.

Assay [2] relates to crabgrass (Digitaria sanguinalis, DIGSA). The assay is described as above. The conditions noted are these: methylidene mevalonate 933 g ae/ha alone, 14 days, 1% crop oil concentrate. The procedure:
as §1

The subject of assay [3] is wild oats (Avena fatua, AVEFA). The description is as above. To be noted: methylidene mevalonate 933 g ae/ha alone, 14 days, 1% crop oil concentrate. On the procedure: as §1
Assay [4] concerns morningglory (Ipomoea hederacea, IPOHE). Described as above. To be noted: methylidene mevalonate 933 g ae/ha alone, 14 days, 1% crop oil concentrate. On the procedure:
as §1

For a further assay, the system named is BW ave. As to the kind of experiment: Post-emergent evaluation, average. The conditions noted are these: after 2 weeks. The procedure:
(§2) Seeds of the desired test plant species were planted in Grace-Sierra MetroMix® 306 planting mixture, which typically has a pH of 6.0 to 6.8 and an organic matter content of about 30 percent, in plastic pots with a surface area of 64 square centimeters. When required to ensure good germination and healthy plants, a fungicide treatment and/or other chemical or physical treatment was applied. The plants were grown for 7-21 days in a greenhouse with an approximate 15 hr photoperiod which was maintained at about 23-29° C. during the day and 22-28° C. during the night. Nutrients and water were added on a regular basis and supplemental lighting was provided with overhead metal halide 1000-Watt lamps as necessary. The plants were employed for testing when they reached the first or second true leaf stage.
(§3) A weighed amount, determined by the highest rate to be tested, of each test compound was placed in a 20 mL glass vial and was dissolved in 4 mL of a 97:3 v/v (volume/volume) mixture of acetone and dimethyl sulfoxide (DMSO) to obtain concentrated stock solutions. […] The concentrated stock solutions obtained were diluted with an aqueous mixture containing acetone, water, isopropyl alcohol, DMSO, Atplus 411F crop oil concentrate, and Triton X-155 surfactant in a 48.5:39:10:1.5:1.0:0.02 v/v ratio to obtain spray solutions of known concentration. The solutions containing the highest concentration to be tested were prepared by diluting 2 mL aliquots of the stock solution with 13 mL of the mixture and lower concentrations were prepared by serial dilution of the stock solution. Approximately 1.5 mL aliquots of each solution of known concentration were sprayed evenly onto each of the test plant pots using a DeVilbiss atomizer driven by compressed air pressure of 2 to 4 psi ([…]) to obtain thorough coverage of each plant. Control plants were sprayed in the same manner with the aqueous mixture. In this test an application rate of 1 ppm results in the application of approximately 1 g/Ha.
(§4) The treated plants and control plants were placed in a greenhouse as described above and watered by sub-irrigation to prevent wash-off of the test compounds. After 2 weeks the condition of the test plants as compared with that of the untreated plants was determined visually and scored on a scale of 0 to 100 percent where 0 corresponds to no injury and 100 corresponds to complete kill. Species abbreviations as described for Table I with the following additions: soybean (Glycine max, GLXMA), rape (Brassica napus, BRSNN), chickweed (Stellaria media, STEME), cocklebur (Xanthium strumarium XANST), lambsquarters (Chenopodium album, CHEAL), violet (Viola tricolor, VIOTR), bindweed (Polygonum convolvulus, POLCO), spurge (Euphorbia heterophylla, EPHHL), Canada thistle (Cirsium arvense, CIRAR), corn (Zea mays, ZEAMX), rice (Oryza sativa, ORYSA), wheat (Triticum aestivum, TRZAS), crabgrass (Digitaria sanguinalis, DIGSA), shattercane (Sorghum vulgare, SORVU) and yellow nutsedge (Cyperus esculentus, CYPES).

For the next assay, the system named is GW ave. Put plainly: Post-emergent evaluation, average. The conditions noted are these: after 2 weeks. The procedure:
as §2, §3, §4

Assay [5] deals with crabgrass (Digitaria sanguinalis, DIGSA). As to the kind of experiment: Post-emergent evaluation. To be noted: after 2 weeks. The procedure: as §2, §3, §4
(§5) By applying the well-accepted probit analysis as described by J. Berkson in Journal of the American Statistical […], 48, 565 (1953) and by D. Finney in “Probit Analysis” Cambridge University Press (1952), similar data can be used to calculate GR80 values, which are defined as growth reduction factors that correspond to the effective dose of herbicide required to kill or control 80 percent of a target plant. Species abbreviations are as previously defined.

For assay [6], the system named is yellow nutsedge (Cyperus esculentus, CYPES). Put plainly: Post-emergent evaluation. To be noted: after 2 weeks. The procedure: as §2, §3, §4, §5

Turning to `C=C(CO)C(C)(O)CC(=O)O` (stereo not drawn) [methylidene mevalonate, 3-hydroxy-4-(hydroxymethyl)-3-methylpent-4-enoic acid], the “Actual Injury % growth reduction” value in assay [1] worked out at 0%; in assay [2] it was 35%; in assay [3], 35%; in assay [4], 60%. Also, the “Postemergent % Control, BW ave” value was determined as 11% in the assay with BW ave (spray concentration 125 ppm); 15% in the assay with BW ave (spray concentration 250 ppm); 37% with BW ave (spray concentration 500 ppm); 54% with BW ave (spray concentration 1000 ppm); 63% with BW ave (spray concentration 2000 ppm). For the same compound, the “Postemergent % Control, GW ave” value is 12% in the assay on GW ave (spray concentration 125 ppm); 39% in the assay with GW ave (spray concentration 250 ppm); 64% with GW ave (spray concentration 500 ppm); 82% in the assay with GW ave (spray concentration 1000 ppm); 88% in the assay on GW ave (spray concentration 2000 ppm). The “Postemergent % Control” value is given as 0% in assay [5] (spray concentration 125 ppm); 10% in assay [5] (spray concentration 250 ppm); 50% in assay [5] (spray concentration 500 ppm); 70% in assay [5] (spray concentration 1000 ppm); 80% in assay [5] (spray concentration 2000 ppm); 30% in assay [6] (spray concentration 125 ppm). In addition, the “Postemergent % Control” value is given as 70% in assay [6] (spray concentration 250 ppm), 90% in assay [6] (spray concentration 500 ppm), 95% in assay [6] (spray concentration 1000 ppm) and 95% in assay [6] (spray concentration 2000 ppm).
